In PMC9061999, “Application of the Adverse Outcome Pathway Concept to In Vitro Nephrotoxicity Assessment: Kidney Injury due to Receptor-Mediated Endocytosis and Lysosomal Overload as a Case Study” (Frontiers in Toxicology, 2022):

Test system: NRK-52E cells
Assay: LC-MS/MS analysis of intracellular concentration
Type: in vitro ADME, rat
Details: for Intracellular accumulation in NRK-52E compared to RPTEC-TERT1 cells: 24 h; for Intracellular concentration after recovery compared to the 24 h time-point: 34 µM for 24 h, then 24 h in fresh medium; for Time course of intracellular concentration: within the 24 h treatment period (1-2 min, 1, 3, 6, 24 h), n = 3
Procedure: NRK-52E and RPTEC/TERT1 cells were seeded in 12-well plates (120,000 cells per well) and were allowed to grow for 48 h (NRK-52E) or 10 d (RPTEC/TERT1) until they reached 100% confluence. After cells achieved 100% confluence, the supernatant was aspirated, and the cells were washed twice with 1 x PBS. Cells were treated with polymyxins at a final concentration of 34 µM for 24 h. Samples were taken at five different treatment time points (1–2 min, 1, 3, 6, and 24 h). In addition, a recovery sample was taken 24 h after the end of the 24 h treatment period. To this end, the supernatant was aspirated after 24 h treatment and the cells were washed three times with 1 x PBS to remove polymyxin B or colistin residues. Fresh growth medium was added, and the cells were incubated for another 24 h. At the end of each experiment, the cells were washed 3 times with 1 x PBS and trypsinized by adding 200 µL of trypsin. Detached cells were washed with 1,000 µL 1 x PBS and the cells were transferred to LoBind™ tubes (Eppendorf). Cell count was determined using a Fuchs-Rosenthal counting chamber (Hartenstein). Cells were centrifuged for 5 min at 4°C at 10.000 rpm and the supernatant was aspirated. Cells were resuspended in 1,000 µL 1 x PBS and centrifuged for 5 min at 4°C at 10.000 rpm. After centrifugation, the supernatant was aspirated, and the cell pellet was resuspended in 250 µL ammonium acetate buffer (10 mM) and 250 µL of 30% methanol with 1% acetic acid containing polymyxin B respectively colistin as an internal standard. Cells were sonicated for 10 min and centrifuged for 5 min at 4°C at 14.000 rpm. The supernatant was transferred quantitatively into new LoBind™ tubes (Eppendorf) and dried in a centrifugal vacuum concentrator for 2–3 h. To measure compound plastic binding, the empty 12 well plates were washed with 1.5 ml acetonitrile on an orbital shaker for 2 h and supernatant was collected. For sample purification via solid phase extraction, SPE cartridges Strata-X 33 µm polymeric reversed phase, 10 mg/1 ml (Phenomenex) were used. In the conditioning step the cartridges were rinsed with 200 µL methanol (100%) and subsequently with 200 µL ddH2O to activate the sorbent bed. The dried samples were dissolved in 200 µL 1% acetic acid and transferred onto the SPE cartridge. The SPE cartridge were rinsed once with 200 µL 1% acetic acid. Impurities were removed by rinsing the cartridge once with 200 µL 10% methanol. A fresh LoBind™ tube (Eppendorf) was placed under the SPE cartridge to eluate the samples by rinsing twice with 200 µL 90% methanol containing 1% acetic acid. The samples were dried in a centrifugal vacuum concentrator for 2–3 h. All samples were stored at −20°C until LC-MS/MS analysis.
A triple quadrupole mass spectrometer equipped with a Turbo-Ion® Spray source (QTrap API 2000; AB Sciex Instruments) was used for analyses. The mass spectrometer was coupled to an Agilent 1100 HPLC system consisting of a binary pump system, a vacuum degasser and an autosampler (Agilent 1,100). Chromatographic separation was performed at 40°C with a column oven (Knauer) on a Synergi Hydro-RP column (2 mm × 150 mm, 4 μm, 80 Å; Phenomenex) coupled to a precolumn (SecurityGuard™ Cartridges, AQ C18 4 × 2.0 mm) using a binary step gradient at a flow rate of 0.2 ml/min with the following gradient: 0 min 100% A, 15 min 0% A, 20 min 0% A, 21 min 100% A, and 30 min 100% A. Mobile phase consisted of 3% acetonitrile containing 1% acetic acid and (solvent A) and 97% acetonitrile containing 1% acetic acid (solvent B). The injection volume was set to 10 µL and the total analysis time was 30 min. Following chromatographic separation, multiple ion monitoring was used to detect the triply charged, twice charged, and single charged ions of polymyxins (Table 1). […]

Row | Substance | Intracellular accumulation in NRK-52E compared to RPTEC-TERT1 cells (34 µM) | Intracellular concentration after recovery compared to the 24 h time-point (NRK-52E) | Time course of intracellular concentration (NRK-52E, 34 µM) | Intracellular concentration compared to polymyxin B (NRK-52E, 34 µM)
1 | Polymyxin B | significantly lower in NRK-52E cells | declined during the 24 h off-dose recovery period | continuous rise in the intracellular concentration | 
2 | Colistin | significantly lower in NRK-52E cells | declined during the 24 h off-dose recovery period | continuous rise in the intracellular concentration | lower intracellular concentrations
